# In patent US9540348B2, “Imidazole-1-yl pyrimidine derivatives, or pharmacutically acceptable salt thereof, and pharmaceutic composition comprising the same as an active ingredient” (Industry-University Cooperation Foundation Hanyang …, priority 2015, dated 2017):
# “Also recorded” adds a separate entry of the source.
# Key:
# [1] = test system: A375P human melanoma cell line; test: Antiproliferative activity to A375P human melanoma cell line; format: cell-based
# Description: The antiproliferative activity of the compounds of Examples to A375P human melanoma cell line and U937 human leukemic monocyte lymphoma cell line are evaluated and listed in the following Table 1.
# [2] = target: ABL1 (Homo sapiens, UniProt P00519); test: Kinase panel screening; format: biochemical; details: 10 μM concentration; read-out: Inhibition Rate (Unit: %) ABL1
# Description: (§1) To Compound 10c of Example 23, kinase panel screening was carried out to 32 kinds of kinases in 10 μM concentration and the results are listed in the following Table 2.
# [3] = target: AKT1 (Homo sapiens, UniProt P31749); test: Kinase panel screening; format: biochemical; details: 10 μM concentration; read-out: Inhibition Rate (Unit: %) AKT1
# Description: as §1
# [4] = target: ALK (Homo sapiens, UniProt Q9UM73); test: Kinase panel screening; format: biochemical; details: 10 μM concentration; read-out: Inhibition Rate (Unit: %) ALK
# Description: as §1
# [5] = target: Aurora A (Homo sapiens, UniProt O14965); test: Kinase panel screening; format: biochemical; details: 10 μM concentration; read-out: Inhibition Rate (Unit: %) Aurora A
# Description: as §1
# [6] = target: BRAF (Homo sapiens, UniProt P15056); test: Kinase panel screening; format: biochemical; details: 10 μM concentration
# BRAF, sequence (P15056 whole entry): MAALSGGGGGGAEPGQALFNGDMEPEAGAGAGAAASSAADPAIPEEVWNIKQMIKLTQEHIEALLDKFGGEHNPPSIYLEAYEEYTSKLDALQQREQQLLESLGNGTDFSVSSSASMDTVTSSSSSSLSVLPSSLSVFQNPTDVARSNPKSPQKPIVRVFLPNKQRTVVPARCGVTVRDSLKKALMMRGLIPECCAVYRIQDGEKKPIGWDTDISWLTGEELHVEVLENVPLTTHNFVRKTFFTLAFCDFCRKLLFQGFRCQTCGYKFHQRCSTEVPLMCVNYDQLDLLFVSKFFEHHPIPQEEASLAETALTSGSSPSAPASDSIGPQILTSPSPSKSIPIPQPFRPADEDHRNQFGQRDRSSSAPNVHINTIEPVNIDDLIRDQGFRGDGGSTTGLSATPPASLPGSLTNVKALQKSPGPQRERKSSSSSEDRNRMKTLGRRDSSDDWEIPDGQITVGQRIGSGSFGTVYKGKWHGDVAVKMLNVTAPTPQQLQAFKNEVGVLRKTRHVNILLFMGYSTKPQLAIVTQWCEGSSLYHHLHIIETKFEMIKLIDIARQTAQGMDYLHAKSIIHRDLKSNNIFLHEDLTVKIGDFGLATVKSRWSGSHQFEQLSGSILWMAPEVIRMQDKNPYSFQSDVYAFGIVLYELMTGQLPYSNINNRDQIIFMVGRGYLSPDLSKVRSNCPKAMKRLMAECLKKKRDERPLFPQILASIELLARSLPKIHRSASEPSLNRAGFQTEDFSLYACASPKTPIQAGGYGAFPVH
# Description: as §1
# [7] = target: BRAF (V600E) (Homo sapiens, UniProt P15056, V600E); test: Kinase panel screening; format: biochemical; details: 10 μM concentration
# BRAF (V600E), sequence (P15056 whole entry V600E): as the sequence (P15056 whole entry) above, with V600E counted along it
# Description: as §1
# [8] = target: CDK1/cyclin B (Homo sapiens, UniProt P06493); test: Kinase panel screening; format: biochemical; details: 10 μM concentration; read-out: Inhibition Rate (Unit: %) CDK1/cyclin B
# Description: as §1
# [9] = target: EGFR (Homo sapiens, UniProt P00533); test: Kinase panel screening; format: biochemical; details: 10 μM concentration; read-out: Inhibition Rate (Unit: %) EGFR
# Description: as §1
# [10] = target: ERK1 (Homo sapiens, UniProt P27361); test: Kinase panel screening; format: biochemical; details: 10 μM concentration; read-out: Inhibition Rate (Unit: %) ERK1
# Description: as §1
# [11] = target: FAK/PTK2 (Homo sapiens, UniProt Q05397); test: Kinase panel screening; format: biochemical; details: 10 μM concentration; read-out: Inhibition Rate (Unit: %) FAK/PTK2
# FAK/PTK2, sequence (Q05397 whole entry): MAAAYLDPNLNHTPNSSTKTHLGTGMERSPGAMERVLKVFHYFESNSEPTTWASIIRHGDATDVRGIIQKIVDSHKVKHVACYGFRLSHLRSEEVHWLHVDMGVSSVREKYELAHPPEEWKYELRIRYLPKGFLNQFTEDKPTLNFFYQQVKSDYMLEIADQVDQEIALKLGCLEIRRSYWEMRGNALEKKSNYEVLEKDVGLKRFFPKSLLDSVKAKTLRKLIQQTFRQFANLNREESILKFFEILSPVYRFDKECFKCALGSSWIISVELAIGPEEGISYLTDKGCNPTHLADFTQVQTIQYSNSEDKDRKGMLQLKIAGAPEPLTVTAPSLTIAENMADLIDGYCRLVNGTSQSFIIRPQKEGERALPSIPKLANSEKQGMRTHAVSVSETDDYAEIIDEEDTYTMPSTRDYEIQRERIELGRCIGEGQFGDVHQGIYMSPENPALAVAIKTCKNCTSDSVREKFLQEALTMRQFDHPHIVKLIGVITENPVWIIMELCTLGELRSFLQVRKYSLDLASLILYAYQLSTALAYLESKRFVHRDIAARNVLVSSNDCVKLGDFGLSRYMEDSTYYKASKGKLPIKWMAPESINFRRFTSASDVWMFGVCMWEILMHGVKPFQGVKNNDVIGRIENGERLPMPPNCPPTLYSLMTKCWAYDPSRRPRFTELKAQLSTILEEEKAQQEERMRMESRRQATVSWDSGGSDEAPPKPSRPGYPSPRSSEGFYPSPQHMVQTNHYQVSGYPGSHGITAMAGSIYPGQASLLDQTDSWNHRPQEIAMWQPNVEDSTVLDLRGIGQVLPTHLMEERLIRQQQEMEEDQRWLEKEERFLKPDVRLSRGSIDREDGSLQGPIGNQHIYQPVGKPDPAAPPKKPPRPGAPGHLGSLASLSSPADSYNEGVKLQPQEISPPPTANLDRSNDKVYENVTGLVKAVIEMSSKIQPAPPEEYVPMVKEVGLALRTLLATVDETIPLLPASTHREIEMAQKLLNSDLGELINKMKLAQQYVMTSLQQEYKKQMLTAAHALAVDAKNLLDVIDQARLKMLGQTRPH
# Description: as §1
# [12] = target: FGFR3 (Homo sapiens, UniProt P22607); test: Kinase panel screening; format: biochemical; details: 10 μM concentration; read-out: Inhibition Rate (Unit: %) FGFR3
# Description: as §1
# [13] = target: FLT3 (Homo sapiens, UniProt P36888); test: Kinase panel screening; format: biochemical; details: 10 μM concentration; read-out: Inhibition Rate (Unit: %) FLT3
# Description: as §1
# [14] = target: FMS (Homo sapiens, UniProt P07333); test: Kinase panel screening; format: biochemical; details: 10 μM concentration; read-out: Inhibition Rate (Unit: %) FMS
# FMS, sequence (P07333 20-972, species assumed): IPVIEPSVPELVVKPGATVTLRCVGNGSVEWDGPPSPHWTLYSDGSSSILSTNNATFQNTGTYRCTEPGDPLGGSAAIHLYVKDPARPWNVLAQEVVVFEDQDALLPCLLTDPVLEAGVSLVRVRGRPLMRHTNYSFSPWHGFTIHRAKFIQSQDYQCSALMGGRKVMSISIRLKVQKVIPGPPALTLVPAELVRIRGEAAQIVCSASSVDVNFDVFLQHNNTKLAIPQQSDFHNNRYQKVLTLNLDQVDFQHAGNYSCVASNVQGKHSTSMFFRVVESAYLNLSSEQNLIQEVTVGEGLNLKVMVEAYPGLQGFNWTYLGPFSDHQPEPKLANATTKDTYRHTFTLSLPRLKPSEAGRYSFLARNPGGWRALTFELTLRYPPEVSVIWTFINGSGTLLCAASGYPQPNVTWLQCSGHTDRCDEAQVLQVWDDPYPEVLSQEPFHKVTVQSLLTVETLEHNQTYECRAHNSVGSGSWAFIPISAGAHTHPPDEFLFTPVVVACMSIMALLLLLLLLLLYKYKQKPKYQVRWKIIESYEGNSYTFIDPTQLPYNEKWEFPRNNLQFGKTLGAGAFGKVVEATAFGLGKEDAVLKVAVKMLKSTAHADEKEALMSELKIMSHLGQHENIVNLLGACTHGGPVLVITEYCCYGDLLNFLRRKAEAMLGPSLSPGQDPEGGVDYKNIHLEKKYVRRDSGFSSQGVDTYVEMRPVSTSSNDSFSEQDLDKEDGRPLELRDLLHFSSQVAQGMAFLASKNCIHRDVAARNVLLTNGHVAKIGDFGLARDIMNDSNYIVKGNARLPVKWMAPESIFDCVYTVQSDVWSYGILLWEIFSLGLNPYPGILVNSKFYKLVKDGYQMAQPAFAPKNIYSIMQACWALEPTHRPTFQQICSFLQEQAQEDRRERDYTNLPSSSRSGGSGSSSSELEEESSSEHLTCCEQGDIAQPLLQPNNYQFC
# Description: as §1
# [15] = target: GSK3b (Homo sapiens, UniProt P49841); test: Kinase panel screening; format: biochemical; details: 10 μM concentration; read-out: Inhibition Rate (Unit: %) GSK3b
# GSK3b, sequence (P49841 whole entry, species assumed): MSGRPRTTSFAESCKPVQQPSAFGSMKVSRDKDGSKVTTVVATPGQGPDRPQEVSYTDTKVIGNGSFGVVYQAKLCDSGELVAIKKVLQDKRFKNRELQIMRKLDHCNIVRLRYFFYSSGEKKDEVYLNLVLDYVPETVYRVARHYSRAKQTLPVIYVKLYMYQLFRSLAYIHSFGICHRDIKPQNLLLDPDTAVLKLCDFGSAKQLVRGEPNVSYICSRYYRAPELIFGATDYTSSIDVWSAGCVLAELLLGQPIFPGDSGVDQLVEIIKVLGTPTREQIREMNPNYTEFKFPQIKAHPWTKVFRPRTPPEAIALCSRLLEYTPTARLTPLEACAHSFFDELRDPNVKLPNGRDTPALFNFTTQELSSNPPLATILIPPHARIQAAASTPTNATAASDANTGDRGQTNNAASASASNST
# Description: as §1
# [16] = target: IGF1R (Homo sapiens, UniProt P08069); test: Kinase panel screening; format: biochemical; details: 10 μM concentration; read-out: Inhibition Rate (Unit: %) IGF1R
# Description: as §1
# [17] = target: JAK3 (Homo sapiens, UniProt P52333); test: Kinase panel screening; format: biochemical; details: 10 μM concentration; read-out: Inhibition Rate (Unit: %) JAK3
# Description: as §1
# [18] = target: JNK3 (Homo sapiens, UniProt P53779); test: Kinase panel screening; format: biochemical; details: 10 μM concentration; read-out: Inhibition Rate (Unit: %) JNK3
# Description: as §1
# [19] = target: LCK (Homo sapiens, UniProt P06239); test: Kinase panel screening; format: biochemical; details: 10 μM concentration; read-out: Inhibition Rate (Unit: %) LCK
# LCK, sequence (P06239 whole entry, species assumed): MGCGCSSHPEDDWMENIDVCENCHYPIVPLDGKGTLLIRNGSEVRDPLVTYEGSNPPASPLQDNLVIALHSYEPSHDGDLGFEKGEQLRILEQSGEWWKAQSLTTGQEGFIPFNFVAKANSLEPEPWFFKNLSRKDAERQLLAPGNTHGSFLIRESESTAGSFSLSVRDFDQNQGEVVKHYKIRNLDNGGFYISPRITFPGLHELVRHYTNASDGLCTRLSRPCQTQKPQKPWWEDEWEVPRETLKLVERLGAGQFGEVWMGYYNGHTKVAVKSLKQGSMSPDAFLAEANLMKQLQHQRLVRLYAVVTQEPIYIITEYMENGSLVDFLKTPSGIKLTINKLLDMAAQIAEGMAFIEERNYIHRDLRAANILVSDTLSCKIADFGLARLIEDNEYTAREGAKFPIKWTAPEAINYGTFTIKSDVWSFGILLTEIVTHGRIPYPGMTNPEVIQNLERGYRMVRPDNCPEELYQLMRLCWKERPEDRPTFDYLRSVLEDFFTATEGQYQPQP
# Description: as §1
# [20] = target: LYN (Homo sapiens, UniProt P07948); test: Kinase panel screening; format: biochemical; details: 10 μM concentration; read-out: Inhibition Rate (Unit: %) LYN
# Description: as §1
# [21] = target: P38a/MAPK14 (Homo sapiens, UniProt Q16539); test: Kinase panel screening; format: biochemical; details: 10 μM concentration; read-out: Inhibition Rate (Unit: %) P38a/MAPK14
# Description: as §1
# [22] = test system: PKA; test: Kinase panel screening; format: biochemical; details: 10 μM concentration
# Description: as §1
# [23] = target: RAF1 (Homo sapiens, UniProt P04049); test: Kinase panel screening; format: biochemical; details: 10 μM concentration
# RAF1, sequence (P04049 whole entry): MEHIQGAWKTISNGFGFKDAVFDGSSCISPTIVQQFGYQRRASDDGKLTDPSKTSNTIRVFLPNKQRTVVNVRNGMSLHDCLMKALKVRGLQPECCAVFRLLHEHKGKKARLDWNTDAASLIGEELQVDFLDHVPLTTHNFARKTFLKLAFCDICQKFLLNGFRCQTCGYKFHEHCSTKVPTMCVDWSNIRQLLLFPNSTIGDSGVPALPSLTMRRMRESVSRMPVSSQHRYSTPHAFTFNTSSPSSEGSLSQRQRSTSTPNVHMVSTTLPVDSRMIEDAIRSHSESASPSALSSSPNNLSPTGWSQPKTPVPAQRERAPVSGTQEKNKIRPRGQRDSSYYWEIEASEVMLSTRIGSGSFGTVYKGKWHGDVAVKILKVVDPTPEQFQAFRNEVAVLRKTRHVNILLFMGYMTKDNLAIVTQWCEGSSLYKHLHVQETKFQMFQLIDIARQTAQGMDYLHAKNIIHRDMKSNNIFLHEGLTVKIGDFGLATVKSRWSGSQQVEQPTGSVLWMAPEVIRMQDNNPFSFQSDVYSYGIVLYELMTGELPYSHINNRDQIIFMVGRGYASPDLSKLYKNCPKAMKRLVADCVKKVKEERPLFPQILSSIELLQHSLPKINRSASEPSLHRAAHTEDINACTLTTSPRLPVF
# Description: as §1
# [24] = target: RON/MST1R (Homo sapiens, UniProt Q04912); test: Kinase panel screening; format: biochemical; details: 10 μM concentration; read-out: Inhibition Rate (Unit: %) RON/MST1R
# Description: as §1
# [25] = target: ROS/ROS1 (Homo sapiens, UniProt P08922); test: Kinase panel screening; format: biochemical; details: 10 μM concentration; read-out: Inhibition Rate (Unit: %) ROS/ROS1
# Description: as §1
# [26] = target: c-Kit (Homo sapiens, UniProt P10721); test: Kinase panel screening; format: biochemical; details: 10 μM concentration; read-out: Inhibition Rate (Unit: %) c-Kit
# Description: as §1
# [27] = target: c-MET (Homo sapiens, UniProt P08581); test: Kinase panel screening; format: biochemical; details: 10 μM concentration; read-out: Inhibition Rate (Unit: %) c-MET
# Description: as §1
# [28] = target: c-Src (Homo sapiens, UniProt P12931); test: Kinase panel screening; format: biochemical; details: 10 μM concentration; read-out: Inhibition Rate (Unit: %) c-Src
# Description: as §1
# [29] = target: mTOR/FRAP1 (Homo sapiens, UniProt P42345); test: Kinase panel screening; format: biochemical; details: 10 μM concentration; read-out: Inhibition Rate (Unit: %) mTOR/FRAP1
# Description: as §1
# [30] = target: cRAF1 (Homo sapiens, UniProt P04049); test: Enzymatic activity (IC50) to kinases; format: biochemical; details: read-out: IC50 (Unit: nM) cRAF1
# cRAF1, sequence (P04049 whole entry): as above
compound,measurement,setting,value
"C[C@H](O)CNc1nccc(-n2ccnc2Cc2cccc(NC(=O)Nc3ccc(C(F)(F)F)c(Cl)c3)c2)n1 [Example 23, (S)-1-(3-chloro-4-(trifluoromethyl)phenyl)-3-(3-((1-(2-((2-hydroxypropyl)amino)pyrimidin-4-yl)-1H-imidazol-2-yl)methyl)phenyl)urea]","potency against A375P, in words","[1]; A375P cell line, comparison with Sorafenib",large potencies; also recorded: better potencies than Sorafenib
same,GI50,"[1]; A375P human melanoma cell line, read-out: A375P (GI50, Unit: μM)",1.82 µM
same,inhibition at 10 µM,[2],6.9%
same,inhibition at 10 µM,[3],12.9%
same,inhibition at 10 µM,[4],4.9%
same,inhibition at 10 µM,[5],17.6%
same,Inhibition Rate (Unit: %) BRAF,[6]; 10 µM,99.9%
same,inhibition at 10 µM,[6]; read-out: Inhibition Rate (Unit: %) BRAF,99%
same,Inhibition Rate (Unit: %) BRAF (V600E),[7]; 10 µM,96.1%
same,inhibition at 10 µM,[7]; read-out: Inhibition Rate (Unit: %) BRAF (V600E),99%
same,inhibition at 10 µM,[8],34.8%
same,inhibition at 10 µM,[9],0%
same,inhibition at 10 µM,[10],0%
same,inhibition at 10 µM,[11],1.2%
same,inhibition at 10 µM,[12],3.5%
same,inhibition at 10 µM,[13],68.4%
same,inhibition at 10 µM,[14],33.6%
same,inhibition at 10 µM,[15],34.5%
same,inhibition at 10 µM,[16],0%
same,inhibition at 10 µM,[17],0%
same,inhibition at 10 µM,[18],0%
same,inhibition at 10 µM,[19],5.8%
same,inhibition at 10 µM,[20],8.1%
same,inhibition at 10 µM,[21],94.3%
same,Inhibition Rate (Unit: %) PKA,[22],0%
same,Inhibition Rate (Unit: %) RAF1,[23]; 10 µM,98.7%
same,inhibition at 10 µM,[23]; read-out: Inhibition Rate (Unit: %) RAF1,99%
same,inhibition at 10 µM,[24],0.42%
same,inhibition at 10 µM,[25],0.73%
same,inhibition at 10 µM,[26],63.8%
same,inhibition at 10 µM,[27],17.6%
same,inhibition at 10 µM,[28],2.1%
same,inhibition at 10 µM,[29],0%
same,IC50,[30],8.79 nM
